This passage reports Ki results from patent US9452980B2, “Substituted benzamides” (Hoffmann-La Roche Inc., priority 2009, dated 2016).

Where a name gives a salt, the structure may show the parent alone. Read-outs that look alike come from different tables or passages of the source.

One assay concerns the target mouse TAAR1 (Mus musculus (Mouse), UniProt Q923Y8). Nature of the assay: Radioligand binding assay on mouse TAAR1. The settings on record: read-out: Ki (μM) mouse. The method, boiled down:
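Membranes were from HEK293 cells stably expressing mouse TAAR1. Compounds from 10 pM to 10 μM, in duplicate, competed with [3H]-(S)-4-[(ethyl-phenyl-amino)-methyl]-4,5-dihydro-oxazol-2-ylamine for 1 h at 4 °C. Nonspecific binding was defined with 10 μM unlabelled ligand, and bound radioactivity was read by filtration and scintillation.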

A further assay has as its target rat TAAR1 (Rattus norvegicus (Rat), UniProt Q923Y9). Nature of the assay: Radioligand binding assay on rat TAAR1. The settings on record: read-out: Ki (μM) rat. The method, boiled down:
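Membranes from HEK293 cells stably expressing rat TAAR1, with Kd checked per batch by saturation. Competition with ³H-(S)-4-[(ethyl-phenyl-amino)-methyl]-4,5-dihydro-oxazol-2-ylamine, compounds 10 pM–10 μM in duplicate, 1 hr at 4 °C. Filtration then scintillation counting; nonspecific binding defined with 10 μM unlabeled ligand.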

The mark [1] stands for this setting: mouse TAAR1, HEK-293 membranes, first value of cell mouse/rat.
Where [2] appears, read: rat TAAR1, HEK-293 membranes, second value of cell mouse/rat.

Sequence of mouse TAAR1 (Q923Y8 whole entry): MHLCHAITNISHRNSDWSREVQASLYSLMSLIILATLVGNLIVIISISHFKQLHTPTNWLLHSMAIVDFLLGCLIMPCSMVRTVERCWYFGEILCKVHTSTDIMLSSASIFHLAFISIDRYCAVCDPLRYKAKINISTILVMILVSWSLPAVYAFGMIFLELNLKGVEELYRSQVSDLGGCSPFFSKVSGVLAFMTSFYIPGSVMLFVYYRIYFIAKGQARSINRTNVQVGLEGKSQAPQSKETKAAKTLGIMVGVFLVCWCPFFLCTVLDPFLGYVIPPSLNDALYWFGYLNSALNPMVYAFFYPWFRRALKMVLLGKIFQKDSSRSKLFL
Sequence of rat TAAR1 (Q923Y9 whole entry): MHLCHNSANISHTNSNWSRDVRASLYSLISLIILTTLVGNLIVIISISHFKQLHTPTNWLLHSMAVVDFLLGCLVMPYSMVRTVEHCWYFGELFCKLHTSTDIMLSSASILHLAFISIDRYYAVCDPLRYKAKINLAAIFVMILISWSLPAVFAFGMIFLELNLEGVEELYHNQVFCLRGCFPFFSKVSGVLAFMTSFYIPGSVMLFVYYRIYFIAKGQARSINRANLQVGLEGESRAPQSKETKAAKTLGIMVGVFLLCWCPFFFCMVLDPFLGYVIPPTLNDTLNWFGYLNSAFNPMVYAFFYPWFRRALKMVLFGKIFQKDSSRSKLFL

For the molecule `CCOc1ccc(C(=O)Nc2ccc(C3CCCNC3)cc2)nc1` (racemic) [Example 179, (RS)-5-Ethoxy-pyridine-2-carboxylic acid (4-piperidin-3-yl-phenyl)-amide; hydrochloride], the inhibition constant (Ki) stood at 0.0008 µM on mouse TAAR1 (setting [1]) and 0.0022 µM at rat TAAR1 (setting [2]).
The matching figures for `O=C(Nc1ccc(C2CCCNC2)cc1)c1ccc(F)cn1` (racemic) [Example 180, (RS)-5-Fluoro-N-(4-(piperidin-3-yl)phenyl)picolinamide hydrochloride]: 0.0507 µM and 0.0131 µM.
Turning to `Cc1ccc(C(=O)Nc2ccc(C3CCNC3)cc2)cc1` (racemic) [Example 182, (RS)-4-Methyl-N-(4-(pyrrolidin-3-yl)phenyl)benzamide hydrochloride], the inhibitory constant (Ki) at mouse TAAR1 is 0.0253 µM; on rat TAAR1 (setting [2]) it was 0.0025 µM.
Regarding `Cc1ccc(C(=O)Nc2ccc(C3CCCNC3)cc2)cc1` (racemic) [Example 185, (RS)-4-Methyl-N-(4-(piperidin-3-yl)phenyl)benzamide hydrochloride], the values for the inhibition constant (Ki) at mouse TAAR1 (setting [1]) and at rat TAAR1 (setting [2]) were 0.0333 µM and 0.0026 µM, respectively.
On to `COc1ccc(C(=O)Nc2ccc(C3CCCNC3)cc2)cc1` (racemic) [Example 186, (RS)-4-Methoxy-N-(4-(piperidin-3-yl)phenyl)benzamide hydrochloride], for which the Ki worked out at 0.0486 µM at mouse TAAR1 (setting [1]) and 0.0027 µM at rat TAAR1 (setting [2]).
Consider `O=C(Nc1ccc(C2CNCCO2)cc1)c1ccccc1` (racemic) [Example 188, (RS)—N-(4-(Morpholin-2-yl)phenyl)benzamide hydrochloride], for which the Ki on mouse TAAR1 (setting [1]) stood at 0.138 µM; on rat TAAR1, 0.0055 µM.
Consider `Cc1ccc(C(=O)Nc2ccc(C3CNCCO3)cc2)cc1` (racemic) [Example 189, (RS)-4-Methyl-N-(4-(morpholin-2-yl)phenyl)benzamide hydrochloride], for which the Ki is 0.0343 µM on mouse TAAR1 (setting [1]) and 0.0016 µM on rat TAAR1 (setting [2]).
The matching figures for `COc1ccc(C(=O)Nc2ccc(C3CNCCO3)cc2)cc1` (racemic) [Example 190, (RS)-4-Methoxy-N-(4-(morpholin-2-yl)phenyl)benzamide hydrochloride]: 0.0501 µM and 0.0021 µM.
With `O=C(Nc1ccc(C2CCCNC2)cc1)c1ccc(OCC(F)(F)F)cn1` (racemic) [Example 191, (RS)—N-(4-(Piperidin-3-yl)phenyl)-5-(2,2,2-trifluoroethoxy)picolinamide hydrochloride], the inhibition constant (Ki) came to 0.011 µM at mouse TAAR1 (setting [1]) and 0.0074 µM at rat TAAR1 (setting [2]).
The corresponding values for `O=C(Nc1ccc(C2CNCCO2)cc1)c1ccc(OCc2ccccc2)cc1` (racemic) [Example 192, (RS)-4-(benzyloxy)-N-(4-(morpholin-2-yl)phenyl)benzamide hydrochloride] are 0.0052 µM and 0.0113 µM.
Take `O=C(Nc1ccc(C2CNCCO2)cc1)c1ccc(Cl)nc1` (racemic) [Example 193, (RS)-6-chloro-N-(4-(morpholin-2-yl)phenyl)nicotinamide hydrochloride]: the inhibition constant Ki at mouse TAAR1 (setting [1]) came out at 0.0406 µM; at rat TAAR1, 0.0034 µM.
`N#Cc1ccc(C(=O)Nc2ccc(C3CNCCO3)cc2)cn1` (racemic) [Example 194, (RS)-2-(4-(6-cyanonicotinamido)phenyl)morpholin-4-ium chloride]: the results for the inhibitory constant (Ki) at mouse TAAR1 (setting [1]) and on rat TAAR1 (setting [2]) were 0.0982 µM and 0.005 µM, respectively.
As to `CCOc1ccc(C(=O)Nc2ccc(C3CNCCO3)cc2)cc1` (racemic) [Example 197, (RS)-4-Ethoxy-N-(4-(morpholin-2-yl)phenyl)benzamide hydrochloride], the Ki on mouse TAAR1 (setting [1]) turned out to be 0.0177 µM; at rat TAAR1, 0.0016 µM.
`CCc1ccc(C(=O)Nc2ccc(C3CNCCO3)cc2)cc1` (racemic) [Example 198, (RS)-4-Ethyl-N-(4-(morpholin-2-yl)phenyl)benzamide hydrochloride]: the inhibition constant (Ki) on mouse TAAR1 (setting [1]) was determined as 0.0147 µM; on rat TAAR1 (setting [2]), 0.0028 µM.
`O=C(Nc1ccc(C2CNCCO2)cc1)c1ccc(O)cc1` (racemic) [Example 199, (RS)-4-Hydroxy-N-(4-(morpholin-2-yl)phenyl)benzamide hydrochloride]: the values for the inhibitory constant (Ki) on mouse TAAR1 (setting [1]) and at rat TAAR1 (setting [2]) were 1.16 µM and 0.238 µM, respectively.
As to `O=C(Nc1ccc(C2CNCCO2)cc1)c1ccc(Oc2ccc(Cl)cc2)cc1` (racemic) [Example 206, (RS)-4-(4-Chlorophenoxy)-N-(4-(morpholin-2-yl)phenyl)benzamide hydrochloride], the Ki at mouse TAAR1 (setting [1]) amounted to 0.0026 µM; on rat TAAR1 (setting [2]) it was 0.0011 µM.
Take `O=C(Nc1ccc(C2CNCCO2)cc1)c1cccc(Cl)c1` (racemic) [Example 209, (RS)-3-chloro-N-(4-(morpholin-2-yl)phenyl)benzamide hydrochloride]: the Ki on mouse TAAR1 (setting [1]) amounted to 0.0078 µM; at rat TAAR1 (setting [2]) it was 0.0016 µM.
On to `O=C(Nc1ccc(C2CNCCO2)cc1)c1cncc(Cl)c1` (racemic) [Example 210, (RS)-5-chloro-N-(4-(morpholin-2-yl)phenyl)nicotinamide hydrochloride], for which the Ki on mouse TAAR1 (setting [1]) amounted to 0.0436 µM; at rat TAAR1 (setting [2]) it was 0.0062 µM.
Turning to `COC(=O)c1ccc(COc2ccc(C(=O)Nc3ccc(C4CNCCO4)cc3)cc2)cc1` (racemic) [Example 211, (RS)-Methyl 4-((4-(4-(morpholin-2-yl)phenylcarbamoyl)phenoxy)methyl)benzoate hydrochloride], the Ki was 0.004 µM at mouse TAAR1 (setting [1]) and 0.0009 µM on rat TAAR1 (setting [2]).
The corresponding values for `O=C(O)c1ccc(COc2ccc(C(=O)Nc3ccc(C4CNCCO4)cc3)cc2)cc1` (racemic) [Example 212, (RS)-4-((4-(4-(morpholin-2-yl)phenylcarbamoyl)phenoxy)methyl)benzoic acid hydrochloride] are 2.5 µM and 0.296 µM.
The matching figures for `COC(=O)c1ccc(Oc2ccc(C(=O)Nc3ccc(C4CNCCO4)cc3)cc2)cc1Cl` (racemic) [Example 213, (RS)-Methyl 2-chloro-4-(4-(4-(morpholin-2-yl)phenylcarbamoyl)phenoxy)benzoate hydrochloride]: 0.0012 µM and 0.001 µM.
Consider `O=C(Nc1ccc(C2CNCCO2)cc1)c1ccc(OCC2CC2)cc1` (racemic) [Example 214, (RS)-4-Cyclopropylmethoxy-N-(4-morpholin-2-yl-phenyl)-benzamide hydrochloride], for which the values for the Ki on mouse TAAR1 and on rat TAAR1 (setting [2]) were 0.0057 µM and 0.0016 µM, respectively.
`O=C(Nc1ccc(C2CNCCO2)cc1)c1ccc(Oc2ccc(C(=O)O)c(Cl)c2)cc1` (racemic) [Example 215, (RS)-2-Chloro-4-(4-(4-(morpholin-2-yl)phenylcarbamoyl)phenoxy)benzoic acid hydrochloride]: the inhibition constant Ki on mouse TAAR1 (setting [1]) stood at 2.82 µM; on rat TAAR1 (setting [2]), 2.31 µM.
Consider `CSc1ccc(C(=O)Nc2ccc(C3CNCCO3)cc2)cc1` (racemic) [Example 216, (RS)-4-(Methylthio)-N-(4-(morpholin-2-yl)phenyl)benzamide hydrochloride], for which the inhibition constant Ki on mouse TAAR1 (setting [1]) is 0.0176 µM; on rat TAAR1 it was 0.0012 µM.
On to `Cc1nc(C(=O)Nc2ccc(C3CNCCO3)cc2)cs1` (racemic) [Example 217, (RS)-2-Methyl-N-(4-(morpholin-2-yl)phenyl)thiazole-4-carboxamide hydrochloride], for which the figures for the inhibition constant Ki on mouse TAAR1 (setting [1]) and at rat TAAR1 (setting [2]) were 0.335 µM and 0.0941 µM, respectively.
Turning to `O=C(Nc1ccc(C2CNCCO2)cc1)c1ccnc(Cl)c1` (racemic) [Example 218, (RS)-2-Chloro-N-(4-(morpholin-2-yl)phenyl)isonicotinamide hydrochloride], the results for the Ki at mouse TAAR1 (setting [1]) and on rat TAAR1 (setting [2]) were 0.0872 µM and 0.0087 µM, respectively.
